Test results published in paper PMC8026785, “The pharmacokinetics of [^18F]UCB-H revisited in the healthy non-human primate brain” (EJNMMI Research, 2021).
Values belong to the molecule of their own block, whether it stands above or below them.

Key:
SV2A [1] = biological target: T1, SV2A (Macaca fascicularis, UniProt Q4R4X3); experiment: Displacement PET studies of [^18F]UCB-H; format: in vivo, cynomolgus monkeys (Macaca fascicularis)
T1 construct: The current study evaluates [^18F]UCB-H pharmacokinetics in healthy NHPs; from tissue; host or cells: brain of living healthy cynomolgus monkeys (in vivo PET)
T1 sequence (Q4R4X3 whole entry): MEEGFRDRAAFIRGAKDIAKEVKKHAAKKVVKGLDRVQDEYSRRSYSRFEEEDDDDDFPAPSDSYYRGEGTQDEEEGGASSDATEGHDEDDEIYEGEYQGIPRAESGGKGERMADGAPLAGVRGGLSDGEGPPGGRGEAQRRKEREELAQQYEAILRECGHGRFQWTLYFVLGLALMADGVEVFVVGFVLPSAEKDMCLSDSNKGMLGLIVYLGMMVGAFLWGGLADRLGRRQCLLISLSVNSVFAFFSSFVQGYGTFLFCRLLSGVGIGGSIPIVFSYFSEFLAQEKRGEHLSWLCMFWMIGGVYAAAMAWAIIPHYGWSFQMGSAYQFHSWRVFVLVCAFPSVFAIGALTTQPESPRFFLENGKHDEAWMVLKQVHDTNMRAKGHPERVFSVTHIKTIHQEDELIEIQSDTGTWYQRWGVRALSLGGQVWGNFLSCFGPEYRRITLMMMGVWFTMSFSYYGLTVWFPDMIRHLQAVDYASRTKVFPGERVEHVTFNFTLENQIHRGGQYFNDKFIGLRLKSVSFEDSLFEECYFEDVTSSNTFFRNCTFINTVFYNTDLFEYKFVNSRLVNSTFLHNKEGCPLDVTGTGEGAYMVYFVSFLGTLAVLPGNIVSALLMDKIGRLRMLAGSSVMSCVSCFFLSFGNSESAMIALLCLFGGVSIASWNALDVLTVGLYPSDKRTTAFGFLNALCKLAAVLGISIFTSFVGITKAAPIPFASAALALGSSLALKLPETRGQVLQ
Protocol: All four non-human primates (NHP) underwent a 2-h (2 h) test and retest PET scan; two NHP underwent an additional 4-h (4 h) retest PET scan. Three NHP underwent one 4-h (4 h) displacement PET scan. Arterial blood sampling was performed during test and retest scans with PET imaging spaced by at least 3 weeks between each scan. To this end, the femoral artery opposite to the saphenous vein used for radioligand injection was cannulated. For the 2-h (2 h) scans, we collected in total 28 blood samples of 1 mL: 16 samples during the first 5 min followed by […] every 5 min and […] every 10 min. For the 4 h scans, we collected an additional 6 samples every 20 min during the last two hours (34 samples in total). Larger samples (2 – 3 mL) were collected at 5, 15, 30, 60, 90, 120 min (2 h) and at 180, 240 min (4 h) for metabolite analysis. Displacement of [^18F]UCB-H was done by intravenous (IV) administration 90 min after [^18F]UCB-H injection of a bolus of 30 mg/kg LEV, or of 80 µg/kg (≈250 nmol/kg) or 5 mg/kg (≈15 µmol/kg) of cold [^19F]-UCB-H. Full experimental design of all NHP is outlined in Additional file 1: Table 1.
Solvents and LEV (C8H14N2O2; MM 170.21 g/mol) were obtained at Sigma-Aldrich® (France), and [^19F]-UCB-H (C16H12F4N2O; MM 324.28 g/mol) was synthesised as previously described. Injectable solutions of [^19F]-UCB-H for displacement studies were prepared with a mixture of Tetrahydrofuran (THF), Médialipide® and glucose at 2.5% as previously described. LEV was dissolved in a glucose solution of 2.5% to reach a concentration of 90 mg/mL.
PET image analysis was performed using PMOD software version 3.8 (PMOD Technologies Ltd., Zurich, Suisse). After individual co-registration of PET-MR images, a cynomolgus atlas published by Ballanger and coworkers was normalized to PET images to extract time activity curves in different brain regions. Volumes of interest (VOI) were cerebral white matter (16.7 cm^3), striatum (0.24 cm^3), thalamus (0.89 cm^3), cerebellum (3.83 cm^3), frontal—(2.50 cm^3), parietal—(5.35 cm^3), and temporal (8.22 cm^3) cortex, and whole brain (72.2 cm^3) as a composite region of all regions in the atlas. [^18F]UCB-H pharmacokinetics were evaluated by analyzing the time activity curves of the test- and retest scans using 1- and 2-tissue compartment models (unconstrained and constrained with global K1/k2 coupled fit across all regions, further referred to as 2TCM and 2TCM-c), and Logan graphical analysis with a fixed t* at 60 min [33] using the arterial plasma input function corrected for radio-metabolites to derive the volume of distribution in each region. Percentage standard error (%SE) was estimated from the theoretical parameter covariance matrix. Only reliable estimates (%SE less than 25%) were included in the current analyses. For the three drug studies, percent displacement of the total activity in the whole brain was estimated relative to an average baseline constructed from the two 4 h baseline studies. Briefly, Standardized Uptake Value (SUV) time activity curves (TACs) were calculated for the two baseline and the three displacement studies. Then, each curve was normalized to the SUV at t = 90 min, corresponding to the timeframe immediately before the administration of the drugs in the displacement studies. Baseline curves were averaged and the percent displacement of total activity was calculated as (baseline-displacement)/baseline at a given time post drug administration (see “Results”).

SV2A [2] = test system: SV2A; parameters: method as in PMID 30084043, PMID 31728839; details: cited from earlier work
SV2A [3] = biological target: SV2A; parameters: method as in PMID 31728839; details: human brain; read-out: in vitro Ki; cited from earlier work
SV2A [4] = biological target: SV2A; parameters: method as in PMID 26848175; details: NHP; read-out: in vivo KD; cited from earlier work

SMILES: CC[C@@H](C(N)=O)N1CCCC1=O [LEV, levetiracetam, reference compound]
- displacement of [^18F]UCB-H total uptake (SV2A [1]; 30 mg/kg i.v. at 90 min, estimated 150 min (2.5 h) after injection): ~ 40%
- receptor occupancy at 30 mg/kg (SV2A [1]; cynomolgus monkey, iv, read-out: SV2A occupancy): 75 to 80%

SMILES: Cc1cnccc1CN1C[C@@H](c2cc(F)cc([18F])c2)CC1=O [[^18F]MNI-1126]
- affinity (SV2A [2]): high affinity

- displacement of [^18F]UCB-H total uptake (SV2A [1]; 5 mg/kg i.v. at 90 min, estimated 35 min after injection of cold compound): 50%
- SV2A occupancy expected (SV2A [1]; 5 mg/kg, KD 30 nM): > 98%
- maximum free concentration in brain (SV2A [1]; after 5.0 mg/kg, based on brain uptake curves and fND ~6%): ~2.5 µM
SMILES: O=C1CC(c2cc(F)c(F)c(F)c2)CN1Cc1ccncc1F (stereo not drawn) [[^19F]UCB-H]
- Ki (SV2A [3]): 9 nM
- Kd (SV2A [4]): 30 nM

SMILES: Cc1cnccc1CN1CC(c2cc(F)cc([18F])c2)CC1=O (stereo not drawn) [[^18F]MNI-1128]
- affinity (SV2A [2]): low affinity
